Target: T1, α1β3γ2 GABAA receptor, γ2S325L variant (Homo sapiens, UniProt P14867+P18507+P28472, S325L)
T1 construct: expressed in transfected cells; host or cells: HEK293T
T1 sequence (P14867 28-456): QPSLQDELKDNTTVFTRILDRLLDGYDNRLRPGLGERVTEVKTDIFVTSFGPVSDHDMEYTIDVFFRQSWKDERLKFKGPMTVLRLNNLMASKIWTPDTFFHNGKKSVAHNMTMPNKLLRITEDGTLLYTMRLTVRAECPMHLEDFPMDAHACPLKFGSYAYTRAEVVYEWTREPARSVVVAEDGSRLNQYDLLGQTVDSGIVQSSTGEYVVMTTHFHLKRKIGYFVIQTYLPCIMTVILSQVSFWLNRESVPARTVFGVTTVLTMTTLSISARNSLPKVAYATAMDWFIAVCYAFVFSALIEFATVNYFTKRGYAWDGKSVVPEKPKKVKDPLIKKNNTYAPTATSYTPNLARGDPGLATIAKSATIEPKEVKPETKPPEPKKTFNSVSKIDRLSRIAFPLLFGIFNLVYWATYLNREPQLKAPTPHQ
T1 sequence (P28472 26-473 isoform P28472-2): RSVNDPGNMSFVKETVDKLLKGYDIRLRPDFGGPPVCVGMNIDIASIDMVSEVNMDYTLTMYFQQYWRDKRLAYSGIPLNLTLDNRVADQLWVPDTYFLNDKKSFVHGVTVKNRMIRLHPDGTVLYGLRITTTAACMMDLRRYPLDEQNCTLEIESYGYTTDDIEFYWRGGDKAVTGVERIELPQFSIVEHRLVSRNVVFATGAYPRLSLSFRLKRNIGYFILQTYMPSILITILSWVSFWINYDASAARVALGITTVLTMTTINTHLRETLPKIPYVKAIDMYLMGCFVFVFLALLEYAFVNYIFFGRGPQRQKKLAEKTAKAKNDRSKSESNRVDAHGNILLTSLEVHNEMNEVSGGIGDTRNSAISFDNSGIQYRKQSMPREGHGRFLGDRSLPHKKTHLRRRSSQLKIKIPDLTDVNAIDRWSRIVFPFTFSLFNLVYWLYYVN
T1 sequence (P18507 40-475 S325L): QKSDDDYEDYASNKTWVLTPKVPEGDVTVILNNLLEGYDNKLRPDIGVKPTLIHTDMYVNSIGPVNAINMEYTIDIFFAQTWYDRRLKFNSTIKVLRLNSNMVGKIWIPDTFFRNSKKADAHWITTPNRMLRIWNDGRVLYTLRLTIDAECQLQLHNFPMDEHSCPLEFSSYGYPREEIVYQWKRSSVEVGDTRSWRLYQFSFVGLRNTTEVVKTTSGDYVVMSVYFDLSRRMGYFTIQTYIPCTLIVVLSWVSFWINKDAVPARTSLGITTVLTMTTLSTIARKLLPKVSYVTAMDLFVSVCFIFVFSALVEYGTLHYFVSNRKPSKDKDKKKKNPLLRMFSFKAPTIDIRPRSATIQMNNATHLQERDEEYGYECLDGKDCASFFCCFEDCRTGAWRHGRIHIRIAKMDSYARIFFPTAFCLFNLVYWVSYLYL
Test: Automated patch clamp of GABA-elicited currents (SyncroPatch 384PE), γ2S325L
Format: cell-based
Details: mean
Experimental: The coding sequences of human α1 (GABRA1, NM_000806), β3 (GABRB3, NM_021912), and γ2 (GABRG2, NM_198904.2) GABAAR subunits were subcloned into the pcDNA3.1 expression vectors (Invitrogen, Waltham, MA, USA).
HEK293T cells (ATCC, CRL-11268) were cultured at 37 °C in a humidified 5% CO2 incubator and maintained in Dulbecco’s modified Eagle’s medium (Invitrogen) supplemented with 10% fetal bovine serum (Life Technologies, Carlsbad, CA, USA), and 100 IU/mL of penicillin/streptomycin (Life Technologies). For the expression experiments, 4 × 10^5 cells were transfected using polyethylenimine (PEI) reagent (40 kD, Polysciences, Warrington, PA, USA) at a DNA: to transfection reagent ratio of 1:2.5 and harvested 36 h after transfection. To express WT and variant α1β3γ2 receptors, a total of 3 µg of α1, β3, and γ2 (WT or mutant) subunit cDNAs were transfected at a ratio of 1:1:1 into 60 mm culture dishes. For the mock-transfected condition, an empty pcDNA3.1 vector was added for a final cDNA transfection amount of 3 μg. For the electrophysiology experiments, 2.5 × 10^5 cells were plated in 100 mm culture dishes and transfected after 24 h with 3 μg of cDNA of each α1, β3, γ2 (wild-type or mutant) subunit, using X-tremeGENE HP DNA transfection Reagent (Roche Diagnostics, Basel, Switzerland), following the manufacturer’s protocol. Recordings were obtained forty-eight hours after transfection.
Whole-cell patch clamp recordings were conducted according to the manufacturer’s standard procedure for the SyncroPatch 384 [31]. Whole-cell voltage-clamp recordings were performed at room temperature on HEK293T cells 48 h after transfection with GABAAR subunits, using the SyncroPatch 384PE (Nanion Technologies, Munich, Germany). Cells, at a concentration of 400,000 cells/mL, were harvested in suspension in external solution containing 140 mM of NaCl, 2 mM of CaCl2, 4 mM of KCl, 1 mM of MgCl2, 5 mM of glucose, and 10 mM of HEPES (pH 7.4 with NaOH, 298 mOsm). The cells were loaded in a multi-hole (4 holes per well) 384-well Nanion patch clamp (NPC) chip with a thick borosilicate glass bottom and an average resistance pore size of […]. Built-in electrophysiological protocols were used, and the data were digitized using PatchControl 384 (Nanion Technologies) application. Using PatchControl 384, electrophysiological parameters, such as seal resistance, capacitance, and series resistance, were determined for each well after the application of a test pulse, and subsequently monitored over time. […] The currents were normalized to the maximal response of each well, and the concentration–response curves were calculated from single-point additions. The EC50 values for each variant or wild-type receptor were calculated across multiple wells for each experimental condition.

NCCCC(=O)O [GABA, γ-aminobutyric acid]
Deactivation (1 mM GABA for 5 ms, HEK293T, -80 mV): 307.7 ms | IMAX (maximal GABA-evoked peak current) (1 mM GABA for 5 ms, HEK293T): 0.78 nA | IMAX variant/IMAX WT (1 mM GABA): 39.07% | Rise Time (10–90% rise time, 1 mM GABA for 5 ms, HEK293T): 68.01 ms

Reference: article PMC10046037, “GABRG2 Variants Associated with Febrile Seizures” (Biomolecules, 2023)
